Results reported in patent US20250304923A1, “Novel HIV-1 Variants And Their Methods Of Use In An Animal Challenge Model” (priority 2022, published 2025).
Where two headings read alike, the source gives them in different places.

Assays:
[1] = tested on: blood lymphocytes, NK cells, B cells, monocytes; experiment: Immune cell dynamics during dexamethasone administration (flow cytometry of blood); parameters: species or system owl monkeys; details: monkey, in vivo
Experimental: FIG. S8. […] In the top graph, the plasma viremia is reported for each of three animals over the course of the experiment. ND=no HIV-1 RNA detected. In the remainder of the rows, flow cytometry was performed on fresh Nancy Ma's owl monkey blood to enumerate the indicated cell types over the time course of infection. Antibodies: CD8 Invitrogen #MHCD0801; CD4 BD #550631; CD3 BD #563916 or #563918; CD20 BD #340941; CD16 BD #563892; CD14 BD #557923.
There are other data to support this. In a few animals, Applicants observe undetectable viremia after the acute phase, like elite controllers (one such animal shown in FIG. S29A). Set point viremia in these animals is below 80 HIV-1 RNA copies per mL, our assay LoQ.

[2] = parameters: species or system Nancy Ma's owl monkeys; details: monkey, in vivo
virus stocks = experiment: Susceptibility of virus stocks to post-exposure prophylaxis drugs (VELA Diagnostics); details: all virus stocks, prior to animal testing
Excerpt: Virus stocks and biologic samples from infected animals were handled with biosafety level 3 operating procedures within a biosafety level 2 physical facility. […] This ensured that any research personnel, in case of accidental exposure to viruses or virus-exposed animals, could be successfully treated with standard post-exposure protocols if necessary.

Excerpt for HIVnom: Two Nancy Ma's owl monkeys were intravenously injected with 1.3×10^6 infectious units of HIVnom1 and another two with 2.1×10^6 infectious units of HIVnom2 (FIG. 2a). Blood was drawn weekly for up to 30 weeks, with the “0” timepoint taken from the leg opposite to the site of virus injection five minutes after inoculation. Blood samples were sent to the University of Washington Clinical Retrovirology Laboratory (a human clinical diagnostics lab in Seattle, WA, USA) for determination of plasma viremia by RT-qPCR.
Treatment consisted of a once-daily subcutaneous injection. […] Study animals were maintained at 6 mg/kg for an additional 1-2 weeks.
Plasma vRNA quantification was performed by the commercial human diagnostic services at the University of Washington Retrovirology Laboratory (UWRL; Department of Laboratory Medicine, Seattle, WA, USA) using the Abbott RealTime HIV-1 RNA assay (Abbot #06L18-090) in conjunction with RT-qPCR instrumentation, practices, and procedures standard to that laboratory. Briefly, 500 μL of frozen EDTA owl monkey plasma were submitted for analysis and then diluted to 1 mL by the laboratory prior to processing. The range of vRNA quantitation for the assay is 40-10,000,000 HIV-1 genomes/mL when using undiluted samples, although the range of vRNA reported in this study was 80-20,000,000 HIV-1 genomes per mL due to the dilution required for the animal samples. The laboratory reported four possible outcomes: 1) virus detected and a vRNA quantification in HIV-1 genomes/mL; 2) virus detected but numbers were below the lower limit of quantification (<80 HIV-1 genomes/mL); 3) virus detected but the numbers were above the upper limit of quantification (>20 million HIV-1 genomes/mL); 4) virus not detected. The vRNA assay was performed for each animal prior to the start of the study, on the day of exposure (day 0), and on multiple days throughout the study (File S1).

Dexamethasone sodium phosphate
depletion of blood immune cells [1]: reversibly depleting blood lymphocytes, NK cells, and B cells, but not monocytes | hypokalemia [2]: mild hypokalemia noted to occur in some animals | peak rebound viremia upon dexamethasone treatment (HIVnom; animal BO): 92 HIVnom genomes per mL | peak rebound viremia upon dexamethasone treatment (HIVnom; animal JI): 258 HIVnom genomes per mL | peak rebound viremia upon dexamethasone treatment (HIVnom; animal KI): 612 HIVnom genomes per mL | peak rebound viremia upon dexamethasone treatment (HIVnom; animal RI): 18,220 HIVnom genomes per mL | virus rebound in blood during dexamethasone treatment (HIVnom; three of the four animals infected with HIVnom1 or HIVnom2, subcutaneous, several weeks): virus rebounded into the blood to detectable levels

Cc1nnc(C(=O)NC(C)(C)c2nc(C(=O)NCc3ccc(F)cc3)c(O)c(=O)n2C)o1 [raltegravir]
susceptibility of virus stocks to drug (virus stocks): susceptible

Nc1nc(=O)n([C@@H]2CS[C@H](CO)O2)cc1F [emtricitabine]
susceptibility of virus stocks to drug (virus stocks): susceptible

C[C@H](Cn1cnc2c(N)ncnc21)OCP(=O)(O)O [tenofovir]
susceptibility of virus stocks to drug (virus stocks): susceptible
